Experimental data as given in PubChem BioAssay (NCI).
Where “and” joins values, the source holds several entries; their conditions need not be identical. Equal entries are not always repeated.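 Interpolation was linear, between the two tested concentrations surrounding the appropriate level; five concentrations were tested over 48 hours in 96-well plates. Here, GI50 denotes the concentration required for 50% inhibition of growth. TGI: total growth inhibition.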

Experiments:
Assay in all cases: NCI tumour cell line growth inhibition, 48 h
786-0 renal = tested on: 786-0 renal
EKVX NSCLC = tested on: EKVX NSCLC
HCC-2998 colon = tested on: HCC-2998 colon
NCI-H460 lung = tested on: NCI-H460 lung
NCI-H522 lung = tested on: NCI-H522 lung
NCI/ADR-RES ovarian = tested on: NCI/ADR-RES ovarian
SF-295 CNS = tested on: SF-295 CNS
SF-539 CNS = tested on: SF-539 CNS
SR leukemia = tested on: SR leukemia
SW-620 colon = tested on: SW-620 colon

O=S(=O)(F)Cc1ccccc1
TGI (786-0 renal): > 100 µM | TGI (EKVX NSCLC): > 100 µM | TGI (HCC-2998 colon): > 100 µM | TGI (NCI-H460 lung): > 100 µM | TGI (NCI-H522 lung): > 100 µM | TGI (NCI/ADR-RES ovarian): > 100 µM | TGI (SF-295 CNS): > 100 µM | TGI (SF-539 CNS): > 100 µM | TGI (SR leukemia): > 100 µM | TGI (SW-620 colon): > 100 µM

CC(=O)CC[N+](C)(C)C
TGI (786-0 renal): 59.3 µM | TGI (EKVX NSCLC): 28.9 µM | TGI (HCC-2998 colon): 68.1 µM | TGI (NCI-H460 lung): > 90 µM | TGI (NCI-H522 lung): 1.96 µM | TGI (NCI/ADR-RES ovarian): > 76.9 µM | TGI (SF-295 CNS): > 100 µM | TGI (SF-539 CNS): 82.9 µM | TGI (SR leukemia): 21.5 µM | TGI (SW-620 colon): 27.8 µM

COc1ccc(CCN2CCCn3c2nc2ccccc2c3=O)cc1
GI50 (786-0 renal): 0.299 µM | TGI (786-0 renal): > 100 µM | GI50 (EKVX NSCLC): 0.97 µM | TGI (EKVX NSCLC): > 100 µM | GI50 (HCC-2998 colon): 0.362 µM | TGI (HCC-2998 colon): > 100 µM | GI50 (NCI-H460 lung): 0.0512 µM | TGI (NCI-H460 lung): > 100 µM | GI50 (NCI-H522 lung): 0.035 µM | TGI (NCI-H522 lung): 1.14 µM | GI50 (NCI/ADR-RES ovarian): 0.0432 µM | GI50 (SF-295 CNS): 0.0597 µM | TGI (SF-295 CNS): > 54.2 µM | GI50 (SF-539 CNS): 0.0876 µM | TGI (SF-539 CNS): 0.432 µM | GI50 (SR leukemia): 0.0448 µM | TGI (SR leukemia): > 100 µM | GI50 (SW-620 colon): 0.0508 µM | TGI (SW-620 colon): > 100 µM

O=C(CSSCC(=O)c1ccc(Cl)cc1)c1ccc(Cl)cc1
GI50 (786-0 renal): 4.41 µM | TGI (786-0 renal): 14.5 µM | GI50 (EKVX NSCLC): 9.8 µM | TGI (EKVX NSCLC): > 100 µM | GI50 (HCC-2998 colon): 8.56 µM | TGI (HCC-2998 colon): 22.2 µM | GI50 (NCI-H460 lung): 3.35 µM | TGI (NCI-H460 lung): 26.9 µM | GI50 (NCI-H522 lung): 3.56 µM | TGI (NCI-H522 lung): 15.3 µM | GI50 (NCI/ADR-RES ovarian): 2.69 µM | TGI (NCI/ADR-RES ovarian): 13.1 µM | GI50 (SF-295 CNS): 2.58 µM | TGI (SF-295 CNS): 15.2 µM | GI50 (SF-539 CNS): 7.36 µM | TGI (SF-539 CNS): 23.8 µM | GI50 (SR leukemia): 2.82 µM | TGI (SR leukemia): > 100 µM | GI50 (SW-620 colon): 4.13 µM | TGI (SW-620 colon): 23.6 µM

CCC/C=C/C=C/C(=O)OC1/C(=C/C(=O)OC)CC2CC(C(C)O)OC(=O)CC(O)CC3CC(OC(C)=O)C(C)(C)C(O)(CC4C/C(=C/C(=O)OC)CC(/C=C/C(C)(C)C1(O)O2)O4)O3 (stereo not drawn)
GI50 (786-0 renal): > 12.5 µM | TGI (786-0 renal): 11 µM and > 12.5 µM | GI50 (EKVX NSCLC): > 10.9 µM and 5.21 µM and > 12.5 µM | TGI (EKVX NSCLC): > 10.9 µM and 9.53 µM and > 12.5 µM | GI50 (HCC-2998 colon): > 10.9 µM and 4.72 µM and > 12.5 µM | TGI (HCC-2998 colon): > 10.9 µM and 9 µM and > 12.5 µM | GI50 (NCI-H460 lung): 9.82 µM and 2.81 µM and > 12.5 µM | TGI (NCI-H460 lung): 10.9 µM and 11 µM and > 12.5 µM | GI50 (NCI-H522 lung): > 11 µM | TGI (NCI-H522 lung): > 12.5 µM | GI50 (NCI/ADR-RES ovarian): > 12.5 µM | TGI (NCI/ADR-RES ovarian): > 12.5 µM | GI50 (SF-295 CNS): > 10.9 µM and 6.77 µM and > 12.5 µM | TGI (SF-295 CNS): > 10.9 µM and 11 µM and > 12.5 µM | GI50 (SF-539 CNS): > 11 µM | TGI (SF-539 CNS): > 12.5 µM | GI50 (SR leukemia): 10.8 µM | TGI (SR leukemia): 11 µM and > 12.5 µM | GI50 (SW-620 colon): > 10.9 µM and 2.99 µM and > 12.5 µM | TGI (SW-620 colon): > 10.9 µM and 4.91 µM and > 12.5 µM

COc1ccc(C2=C(c3ccc(OC)cc3)C(=O)OC2)cc1
GI50 (786-0 renal): 2.11 µM | TGI (786-0 renal): 10.9 µM | GI50 (EKVX NSCLC): 16.1 µM | TGI (EKVX NSCLC): > 100 µM | GI50 (HCC-2998 colon): 0.264 µM | TGI (HCC-2998 colon): 14.5 µM | GI50 (NCI-H460 lung): 0.893 µM | TGI (NCI-H460 lung): 17.7 µM | GI50 (NCI-H522 lung): 0.342 µM | TGI (NCI-H522 lung): 1.85 µM | GI50 (NCI/ADR-RES ovarian): 2.89 µM | TGI (NCI/ADR-RES ovarian): 28.4 µM | GI50 (SF-295 CNS): 0.549 µM | GI50 (SF-539 CNS): 0.745 µM | TGI (SF-539 CNS): 6.67 µM | GI50 (SR leukemia): 0.238 µM | TGI (SR leukemia): 0.663 µM | GI50 (SW-620 colon): 0.361 µM | TGI (SW-620 colon): > 42.5 µM

O=[N+]([O-])c1ccc(Sc2cccc[n+]2[O-])c2nonc12
GI50 (786-0 renal): 9.18 µM | TGI (786-0 renal): 22.3 µM | GI50 (EKVX NSCLC): 9.59 µM | TGI (EKVX NSCLC): 31.7 µM | GI50 (HCC-2998 colon): 4.58 µM | TGI (HCC-2998 colon): 16.9 µM | GI50 (NCI-H460 lung): 3.64 µM | TGI (NCI-H460 lung): 25.2 µM | GI50 (NCI-H522 lung): 1.78 µM | TGI (NCI-H522 lung): 3.79 µM | GI50 (NCI/ADR-RES ovarian): 5.73 µM | TGI (NCI/ADR-RES ovarian): > 52.7 µM | GI50 (SF-295 CNS): 3.37 µM | TGI (SF-295 CNS): 43.7 µM | GI50 (SF-539 CNS): 19.3 µM | TGI (SF-539 CNS): 54.3 µM | GI50 (SR leukemia): 0.703 µM | TGI (SR leukemia): > 100 µM | GI50 (SW-620 colon): 1.65 µM | TGI (SW-620 colon): 3.41 µM
